# Reference: patent US20220264877A1, “MICROBIOCIDAL PICOLINAMIDE DERIVATIVES” (SYNGENTA CROP PROTECTION AG, priority 2019, published 2022)
# What was measured:
# [1] = system: Monographella nivalis (Microdochium nivale); experiment: Monographella nivalis (Microdochium nivale) / liquid culture (foot rot cereals); format: cell-based; conditions: 200 ppm in the formulation, PDB potato dextrose broth, 24° C., 4-5 days after application, vs untreated, read-out: disease control (inhibition of growth determined photometrically)
# Experimental: (§1) Monographella nivalis (Microdochium nivale)/liquid culture (foot rot cereals) Conidia of the fungus from cryogenic storage are directly mixed into nutrient broth (PDB potato dextrose broth). After placing a (DMSO) solution of test compound into a microtiter plate (96-well format), the nutrient broth containing the fungal spores is added. The test plates are incubated at 24° C. and the inhibition of growth is determined photometrically 4-5 days after application.
# [2] = system: Botryotinia fuckeliana (Botrytis cinerea); experiment: Botryotinia fuckeliana (Botrytis cinerea) / liquid culture (gray mould); format: cell-based; conditions: 200 ppm in the formulation, Vogels broth, 24° C., 3-4 days after application, vs untreated, read-out: disease control (inhibition of growth determined photometrically)
# Experimental: as §1, with “Botryotinia fuckeliana (Botrytis cinerea)/Liquid Culture (Gray Mould)” for “Monographella nivalis (Microdochium nivale)/liquid culture (foot rot cereals)”, “(Vogels” for “(PDB potato dextrose”, “3-4” for “4-5”
# Plasmopara viticola = format: in vivo; conditions: 200 ppm in the formulation; grape vine leaf disks, inoculated 1 day after application, assessed 6 to 8 days after application, vs untreated
# [3] = system: Mycosphaerella graminicola (Septoria tritici); experiment: Mycosphaerella graminicola (Septoria tritici) / liquid culture (Septoria blotch); format: cell-based; conditions: Zymoseptoria tritici; 200 ppm in the formulation; PDB potato dextrose broth, 24° C., 4 to 5 days after application, vs untreated; read-out: disease control (inhibition of growth determined photometrically)
# Experimental: as §1, with “Mycosphaerella graminicola (Septoria tritici)/Liquid Culture (Septoria Blotch)” for “Monographella nivalis (Microdochium nivale)/liquid culture (foot rot cereals)”, “4 to 5” for “4-5”
# [4] = system: Mycosphaerella arachidis (Cercospora arachidicola); experiment: Mycosphaerella arachidis (Cercospora arachidicola) / liquid culture (early leaf spot); format: cell-based; conditions: 200 ppm in the formulation, PDB potato dextrose broth, 24° C., 4-5 days after application, vs untreated, read-out: disease control (inhibition of growth determined photometrically)
# Experimental: as §1, with “Mycosphaerella arachidis (Cercospora arachidicola)/Liquid Culture (Early Leaf Soot)” for “Monographella nivalis (Microdochium nivale)/liquid culture (foot rot cereals)”
# Pythium ultimum = Pythium ultimum / liquid culture (seedling damping off); format: cell-based; conditions: Globisporangium ultimum; 200 ppm in the formulation; PDB potato dextrose broth, 24° C., 2-3 days after application, vs untreated; read-out: disease control (inhibition of growth determined photometrically)
# Experimental: Pythium ultimum/Liquid Culture (Seedling Damping Off) Mycelia fragments and oospores of a newly grown liquid culture of the fungus are directly mixed into nutrient broth (PDB potato dextrose broth). After placing a (DMSO) solution of test compound into a microtiter plate (96-well format), the nutrient broth containing the fungal mycelia/spore mixture is added. The test plates are incubated at 24° C. and the inhibition of growth is determined photometrically 2-3 days after application.
# [5] = system: Glomerella lagenarium (Colletotrichum lagenarium); experiment: Glomerella lagenarium (Colletotrichum lagenarium) / liquid culture (anthracnose); format: cell-based; conditions: Colletotrichum orbiculare; 200 ppm in the formulation; PDB potato dextrose broth, 24° C., 3 to 4 days after application, vs untreated; read-out: disease control (inhibition of growth measured photometrically)
# Experimental: as §1, with “Glomerella lagenarium (Colletotrichum lagenarium)/Liquid Culture (Anthracnose)” for “Monographella nivalis (Microdochium nivale)/liquid culture (foot rot cereals)”, “measured” for “determined”, “3 to 4” for “4-5”
Structure (SMILES),melting point,inhibition at 200 ppm [1],inhibition at 200 ppm [2],disease control (Plasmopara viticola),inhibition at 200 ppm [3],inhibition at 200 ppm [4],inhibition at 200 ppm (Pythium ultimum),inhibition at 200 ppm [5]
"CC(OC(=O)[C@H](C)NC(=O)c1nccc(NC=O)c1O)C(c1ccc(F)cc1)c1ccc(F)cc1 (stereo partly drawn) [Compound I.a.42, [2,2-bis(4-fluorophenyl)-1-methyl-ethyl] (2S)-2-[(4-formamido-3-hydroxy-pyridine-2-carbonyl)amino] propanoate]",101 to 113 °C,≥ 80%,≥ 80%,at least 80%,≥ 80%,≥ 80%,≥ 80%,
"CC(C)C(=O)OCOc1c(NC=O)ccnc1C(=O)N[C@@H](C)C(=O)OC(C)C(c1ccccc1)c1ccccc1 (stereo partly drawn) [Compound I.k.33, [4-formamido-2-[[(1S)-1-methyl-2-(1-methyl-2,2-diphenyl-ethoxy)-2-oxo-ethyl]carbamoyl]-3-pyridyl]oxymethyl 2-methylpropanoate]",,≥ 80%,≥ 80%,,≥ 80%,≥ 80%,,≥ 80%
"CC(C)C(=O)OCOc1c(NC=O)ccnc1C(=O)N[C@@H](C)C(=O)OC(C)C(c1ccc(F)cc1)c1ccc(F)cc1 (stereo partly drawn) [Compound I.k.42, [2-[[(1S)-2-[2,2-bis(4-fluorophenyl)-1-methyl-ethoxy]-1-methyl-2-oxo-ethyl]carbamoyl]-4-formamido-3-pyridyl]oxymethyl 2-methylpropanoate]",,≥ 80%,≥ 80%,,≥ 80%,≥ 80%,,≥ 80%
"CC(OC(=O)[C@H](C)NC(=O)c1nccc(N)c1O)C(c1ccc(F)cc1)c1ccc(F)cc1 (stereo partly drawn) [I.w.42, [2,2-bis(4-fluorophenyl)-1-methyl-ethyl] (2S)-2-[(4-amino-3-hydroxy-pyridine-2-carbonyl)amino]propanoate]",,≥ 80%,≥ 80%,,≥ 80%,≥ 80%,,≥ 80%
"CC(C)C(=O)OCOc1c(N)ccnc1C(=O)N[C@@H](C)C(=O)OC(C)C(c1ccccc1)c1ccccc1 (stereo partly drawn) [I.y.33, [4-amino-2-[[(1S)-1-methyl-2-(1-methyl-2,2-diphenyl-ethoxy)-2-oxo-ethyl]carbamoyl]-3-pyridyl] oxymethyl 2-methylpropanoate]",,≥ 80%,≥ 80%,,≥ 80%,≥ 80%,,
"CC(C)C(=O)OCOc1c(N)ccnc1C(=O)N[C@@H](C)C(=O)OC(C)C(c1ccc(F)cc1)c1ccc(F)cc1 (stereo partly drawn) [I.y.42, [4-amino-2-[[(1S)-2-[2,2-bis(4-fluorophenyl)-1-methyl-ethoxy]-1-methyl-2-oxo-ethyl]carbamoyl]-3-pyridyl]oxymethyl 2-methylpropanoate]",,≥ 80%,≥ 80%,,≥ 80%,≥ 80%,,
